Measured values published in ChEMBL document CHEMBL1201862, “PubChem BioAssay data set” (2004).
Values belong to the molecule of their own block, whether it stands above or below them. The source made the active and inactive calls.

Columns and labels:
Mucolipin-3 = Mucolipin-3 (Homo sapiens, UniProt Q8TDD5); assay: Dose response cell-based high-throughput screening assay for agonists of the transient receptor potential channel ML3 (TRPML3). [Related pubchem assays: 1526, 1424, 1448 ]; format: functional
Sequence of Mucolipin-3 (Q8TDD5 whole entry): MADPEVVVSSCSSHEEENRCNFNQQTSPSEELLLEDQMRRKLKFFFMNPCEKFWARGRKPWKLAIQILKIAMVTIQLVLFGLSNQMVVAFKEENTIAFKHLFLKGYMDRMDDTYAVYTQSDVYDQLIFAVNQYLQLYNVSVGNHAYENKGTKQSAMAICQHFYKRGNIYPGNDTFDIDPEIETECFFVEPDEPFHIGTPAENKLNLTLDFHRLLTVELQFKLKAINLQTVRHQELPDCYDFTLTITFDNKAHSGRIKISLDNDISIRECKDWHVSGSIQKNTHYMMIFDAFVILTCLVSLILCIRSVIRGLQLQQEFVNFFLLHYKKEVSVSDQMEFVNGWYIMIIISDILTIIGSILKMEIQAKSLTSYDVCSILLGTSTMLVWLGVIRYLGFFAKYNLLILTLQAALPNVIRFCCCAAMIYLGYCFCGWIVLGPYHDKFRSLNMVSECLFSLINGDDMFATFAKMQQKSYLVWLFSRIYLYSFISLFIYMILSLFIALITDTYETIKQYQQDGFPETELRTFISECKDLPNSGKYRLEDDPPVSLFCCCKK

Ion channel NompC = Ion channel NompC (Danio rerio, UniProt Q7T1G6); assay: Fluorescence counterscreen assay for TRPML3 agonists: dose response cell-based high-throughput screening assay to identify agonists of the transient receptor potential channel N1 (TRPN1). [Related pubchem assays: 1526, 1424, 1448 ]; format: functional
Sequence of Ion channel NompC (Q7T1G6 whole entry): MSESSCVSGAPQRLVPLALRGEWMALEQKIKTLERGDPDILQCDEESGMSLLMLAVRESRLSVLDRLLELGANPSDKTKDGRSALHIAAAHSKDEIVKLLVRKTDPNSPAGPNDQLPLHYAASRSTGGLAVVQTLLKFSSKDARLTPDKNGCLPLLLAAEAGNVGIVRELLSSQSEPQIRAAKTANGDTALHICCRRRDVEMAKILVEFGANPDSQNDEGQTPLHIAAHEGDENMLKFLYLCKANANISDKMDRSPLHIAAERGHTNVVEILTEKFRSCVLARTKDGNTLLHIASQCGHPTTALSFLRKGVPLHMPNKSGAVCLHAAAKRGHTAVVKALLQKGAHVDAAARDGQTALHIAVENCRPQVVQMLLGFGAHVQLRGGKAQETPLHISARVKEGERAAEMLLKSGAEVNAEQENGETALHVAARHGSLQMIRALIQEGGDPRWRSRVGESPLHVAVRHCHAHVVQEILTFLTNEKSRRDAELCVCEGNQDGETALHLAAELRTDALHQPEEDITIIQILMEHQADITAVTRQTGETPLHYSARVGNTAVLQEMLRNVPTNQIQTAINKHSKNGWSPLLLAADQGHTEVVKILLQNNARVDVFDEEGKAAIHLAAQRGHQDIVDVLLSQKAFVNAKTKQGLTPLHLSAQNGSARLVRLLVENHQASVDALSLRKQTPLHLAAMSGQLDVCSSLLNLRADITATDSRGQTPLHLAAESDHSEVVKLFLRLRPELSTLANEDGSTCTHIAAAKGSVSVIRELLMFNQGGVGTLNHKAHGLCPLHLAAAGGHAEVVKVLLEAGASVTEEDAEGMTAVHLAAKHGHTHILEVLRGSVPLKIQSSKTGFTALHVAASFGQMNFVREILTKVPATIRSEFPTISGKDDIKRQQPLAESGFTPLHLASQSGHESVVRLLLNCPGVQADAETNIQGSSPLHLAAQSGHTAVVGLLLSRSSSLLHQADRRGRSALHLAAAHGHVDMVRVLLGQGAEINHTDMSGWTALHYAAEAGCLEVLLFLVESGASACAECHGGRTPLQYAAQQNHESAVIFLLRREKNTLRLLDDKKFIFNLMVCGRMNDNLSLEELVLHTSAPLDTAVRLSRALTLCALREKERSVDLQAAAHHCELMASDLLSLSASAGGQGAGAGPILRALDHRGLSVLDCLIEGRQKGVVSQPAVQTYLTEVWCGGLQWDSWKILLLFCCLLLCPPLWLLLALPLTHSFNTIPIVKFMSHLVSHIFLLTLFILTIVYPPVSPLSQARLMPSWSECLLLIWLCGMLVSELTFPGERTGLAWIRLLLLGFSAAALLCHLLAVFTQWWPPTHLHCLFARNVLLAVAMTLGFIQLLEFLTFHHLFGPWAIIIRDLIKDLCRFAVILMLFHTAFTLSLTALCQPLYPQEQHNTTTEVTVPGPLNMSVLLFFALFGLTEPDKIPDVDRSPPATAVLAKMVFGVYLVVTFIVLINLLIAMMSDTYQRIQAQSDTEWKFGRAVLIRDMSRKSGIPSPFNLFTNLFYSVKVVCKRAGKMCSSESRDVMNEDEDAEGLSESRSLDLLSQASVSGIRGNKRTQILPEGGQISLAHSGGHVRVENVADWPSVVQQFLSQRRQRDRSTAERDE

[1] = molecular target: T1, Heat shock factor protein 1 (Mus musculus, UniProt P38532); assay: enhancement of HSF1-driven luciferase signal – cell-based, NIH3T3, luminescence, dose retest, confirmation (AID 435004); format: functional;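 note: stress induced by proteasome inhibitor MG132 added 30 min after compound; luciferase reporter driven by HSF1 response element in NIH3T3 cells; actives raise luminescence as potentiators of the MG132 stress response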
T1 sequence (P38532 whole entry): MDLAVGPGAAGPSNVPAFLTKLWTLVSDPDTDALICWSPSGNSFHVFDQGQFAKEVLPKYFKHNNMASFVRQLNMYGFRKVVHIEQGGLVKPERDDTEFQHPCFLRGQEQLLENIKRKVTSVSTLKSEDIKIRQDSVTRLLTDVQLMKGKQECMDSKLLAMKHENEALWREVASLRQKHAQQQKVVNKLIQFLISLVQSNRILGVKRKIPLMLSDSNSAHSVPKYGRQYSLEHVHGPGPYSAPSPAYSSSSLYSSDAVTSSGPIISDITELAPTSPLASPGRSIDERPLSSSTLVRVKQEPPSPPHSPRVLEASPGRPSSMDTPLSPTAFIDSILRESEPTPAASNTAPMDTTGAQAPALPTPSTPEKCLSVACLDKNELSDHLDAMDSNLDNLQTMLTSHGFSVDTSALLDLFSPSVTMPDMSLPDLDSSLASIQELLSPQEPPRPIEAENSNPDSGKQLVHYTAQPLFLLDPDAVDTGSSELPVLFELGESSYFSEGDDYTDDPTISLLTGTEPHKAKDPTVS

[2] = molecular target: T2, Low molecular weight phosphotyrosine protein phosphatase (Homo sapiens, UniProt P24666); format: functional; settings: read-out: IC50_Mean
T2 sequence (P24666 whole entry): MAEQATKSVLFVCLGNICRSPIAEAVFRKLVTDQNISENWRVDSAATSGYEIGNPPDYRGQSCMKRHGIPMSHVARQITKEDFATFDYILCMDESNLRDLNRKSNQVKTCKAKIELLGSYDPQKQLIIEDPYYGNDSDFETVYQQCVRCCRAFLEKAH

[3] = molecular target: T2, Low molecular weight phosphotyrosine protein phosphatase; format: functional; settings: read-out: IC50_Mean; remark: listed apart in the source
[4] = molecular target: Hepatocyte nuclear factor 4-alpha (Homo sapiens, UniProt P41235); format: functional, cell-based;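 note: biochemical luminescence-based dose-response counterscreen measuring inhibition of HNF4 dimerization, run alongside a screen for blockers of ABHD5–perilipin-5 interaction; split luciferase complementation of HNF4 fusion proteins in cell lysate measuring dimerization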
Sequence of Hepatocyte nuclear factor 4-alpha (P41235 whole entry, the tested form may be a part): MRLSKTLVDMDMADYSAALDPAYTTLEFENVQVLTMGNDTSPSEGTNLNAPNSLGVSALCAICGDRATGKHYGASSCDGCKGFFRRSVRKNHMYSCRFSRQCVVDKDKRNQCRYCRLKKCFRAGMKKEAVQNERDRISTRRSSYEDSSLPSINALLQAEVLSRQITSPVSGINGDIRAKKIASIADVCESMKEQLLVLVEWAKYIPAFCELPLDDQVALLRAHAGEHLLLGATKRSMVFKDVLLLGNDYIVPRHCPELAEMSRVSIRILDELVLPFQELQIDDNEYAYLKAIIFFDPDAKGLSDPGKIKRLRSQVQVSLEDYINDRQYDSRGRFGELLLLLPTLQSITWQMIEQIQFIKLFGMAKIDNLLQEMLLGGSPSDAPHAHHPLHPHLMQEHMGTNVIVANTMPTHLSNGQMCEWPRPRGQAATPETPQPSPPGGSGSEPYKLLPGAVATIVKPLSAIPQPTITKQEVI

[5] = molecular target: T3, Mannose-6-phosphate isomerase (Homo sapiens, UniProt P34949); assay: MPI inhibition at elevated mannose 6-phosphate – biochemical, fluorescence intensity, high mannose 6-phosphate, primary screen (AID 1220)
T3 sequence (P34949 whole entry): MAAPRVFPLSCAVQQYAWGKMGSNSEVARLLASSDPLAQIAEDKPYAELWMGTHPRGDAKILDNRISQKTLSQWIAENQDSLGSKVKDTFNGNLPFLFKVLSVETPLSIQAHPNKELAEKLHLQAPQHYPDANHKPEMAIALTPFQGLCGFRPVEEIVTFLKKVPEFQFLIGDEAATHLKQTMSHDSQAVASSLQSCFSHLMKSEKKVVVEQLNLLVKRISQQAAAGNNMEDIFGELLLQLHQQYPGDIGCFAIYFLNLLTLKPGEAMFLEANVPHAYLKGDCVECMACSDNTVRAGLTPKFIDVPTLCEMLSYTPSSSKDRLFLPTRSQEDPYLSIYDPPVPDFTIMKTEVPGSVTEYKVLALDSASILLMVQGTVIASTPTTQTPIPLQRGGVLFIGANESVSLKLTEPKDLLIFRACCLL

[6] = molecular target: T4, Sentrin-specific protease 8 (Homo sapiens, UniProt Q96LD8); format: functional
T4 sequence (Q96LD8 whole entry): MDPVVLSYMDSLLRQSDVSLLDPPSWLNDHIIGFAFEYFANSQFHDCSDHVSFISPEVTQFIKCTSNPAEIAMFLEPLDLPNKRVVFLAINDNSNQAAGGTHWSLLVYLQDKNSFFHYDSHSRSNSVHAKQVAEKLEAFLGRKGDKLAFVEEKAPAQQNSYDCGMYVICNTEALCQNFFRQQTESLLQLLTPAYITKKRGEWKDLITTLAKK

[7] = molecular target: T4, Sentrin-specific protease 8; format: functional; remark: listed apart in the source
[8] = bead-based luminescence quenchers, dual-tagged ARNT – biochemical, AlphaScreen, cherry-pick, artefact control for ARNT-TACC3 interaction inhibitor project, dose response (AID 651705); format: functional;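 note: AlphaScreen bead proximity signal that flags compounds interfering with the detection technology; potency reflects signal decrease which marks the compound as an assay artifact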
[9] = IC50 of Artemis nuclease activity blockers – biochemical, fluorescence intensity, dose response (AID 720701); format: functional;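 note: Artemis endonuclease enzyme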
[10] = molecular target: ADP-ribosylation factor GTPase-activating protein 1 (Rattus norvegicus, UniProt Q62848); assay: Fluorescence polarization-based biochemical high throughput dose response screening assay to identify inhibitors of ADP-ribosylation factor GTPase activating protein 1 (ARFGAP1).; format: functional
Sequence of ADP-ribosylation factor GTPase-activating protein 1 (Q62848 whole entry): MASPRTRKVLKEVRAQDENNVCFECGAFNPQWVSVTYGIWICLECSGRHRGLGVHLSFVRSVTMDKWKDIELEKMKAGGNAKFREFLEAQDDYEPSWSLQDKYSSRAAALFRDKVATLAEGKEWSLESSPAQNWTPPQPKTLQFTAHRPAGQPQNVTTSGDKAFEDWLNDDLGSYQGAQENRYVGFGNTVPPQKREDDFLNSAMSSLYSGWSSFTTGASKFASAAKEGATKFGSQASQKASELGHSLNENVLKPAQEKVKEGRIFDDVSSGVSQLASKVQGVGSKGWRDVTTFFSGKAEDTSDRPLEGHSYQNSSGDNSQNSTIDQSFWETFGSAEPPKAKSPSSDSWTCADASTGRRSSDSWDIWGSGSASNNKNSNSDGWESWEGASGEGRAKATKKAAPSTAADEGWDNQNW

P388/ADR = assay: cells; format: functional; settings: Mus musculus
SN12K1 = assay: cells; format: functional; settings: Homo sapiens
P388 = assay: cells; format: functional; settings: Mus musculus
[11] = molecular target: T5, Small ubiquitin-related modifier 1 (Homo sapiens, UniProt P63165); assay: SUMO1 protein interaction blockers, potency – biochemical, fluorescence polarization, uHTS hits, dose response (AID 624382); format: functional; settings: read-out: IC50_Mean
T5 sequence (P63165 whole entry): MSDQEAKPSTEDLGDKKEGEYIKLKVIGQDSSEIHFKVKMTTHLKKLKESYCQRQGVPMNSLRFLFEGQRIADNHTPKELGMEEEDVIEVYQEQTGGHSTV

[12] = molecular target: T5, Small ubiquitin-related modifier 1; assay: SUMO1 protein-protein binding blockers, potency – biochemical, FRET, dose response (AID 624383); format: functional; settings: read-out: IC50_Mean
[13] = molecular target: T6, Rac GTPase-activating protein 1 (Homo sapiens, UniProt Q9H0H5); assay: blockers of MgcRacGAP-driven Rac1 GTP hydrolysis – biochemical, ADP Hunter fluorescence, primary and confirmatory, confirmation (AID 624330); format: functional
T6 sequence (Q9H0H5 whole entry): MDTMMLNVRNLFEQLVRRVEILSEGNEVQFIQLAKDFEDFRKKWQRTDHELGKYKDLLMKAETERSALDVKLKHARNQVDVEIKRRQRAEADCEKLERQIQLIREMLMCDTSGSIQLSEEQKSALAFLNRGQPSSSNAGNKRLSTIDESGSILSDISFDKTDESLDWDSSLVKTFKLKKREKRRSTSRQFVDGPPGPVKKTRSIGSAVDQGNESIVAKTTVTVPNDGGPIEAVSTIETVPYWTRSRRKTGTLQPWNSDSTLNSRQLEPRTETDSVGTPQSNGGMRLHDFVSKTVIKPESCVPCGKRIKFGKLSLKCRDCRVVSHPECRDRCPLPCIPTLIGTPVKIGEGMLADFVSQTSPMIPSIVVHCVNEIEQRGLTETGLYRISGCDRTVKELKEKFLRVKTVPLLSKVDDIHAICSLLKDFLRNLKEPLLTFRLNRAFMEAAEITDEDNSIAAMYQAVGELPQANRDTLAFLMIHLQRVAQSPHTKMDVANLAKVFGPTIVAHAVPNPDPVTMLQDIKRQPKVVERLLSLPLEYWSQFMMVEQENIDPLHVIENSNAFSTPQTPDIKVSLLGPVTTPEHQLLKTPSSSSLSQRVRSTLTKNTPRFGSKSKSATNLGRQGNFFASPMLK

[14] = molecular target: T7, Aryl hydrocarbon receptor (Homo sapiens, UniProt P35869); settings: Potency;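 note: confirmatory quantitative high-throughput screen measuring activation of the AhR signaling pathway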
T7 sequence (P35869 whole entry): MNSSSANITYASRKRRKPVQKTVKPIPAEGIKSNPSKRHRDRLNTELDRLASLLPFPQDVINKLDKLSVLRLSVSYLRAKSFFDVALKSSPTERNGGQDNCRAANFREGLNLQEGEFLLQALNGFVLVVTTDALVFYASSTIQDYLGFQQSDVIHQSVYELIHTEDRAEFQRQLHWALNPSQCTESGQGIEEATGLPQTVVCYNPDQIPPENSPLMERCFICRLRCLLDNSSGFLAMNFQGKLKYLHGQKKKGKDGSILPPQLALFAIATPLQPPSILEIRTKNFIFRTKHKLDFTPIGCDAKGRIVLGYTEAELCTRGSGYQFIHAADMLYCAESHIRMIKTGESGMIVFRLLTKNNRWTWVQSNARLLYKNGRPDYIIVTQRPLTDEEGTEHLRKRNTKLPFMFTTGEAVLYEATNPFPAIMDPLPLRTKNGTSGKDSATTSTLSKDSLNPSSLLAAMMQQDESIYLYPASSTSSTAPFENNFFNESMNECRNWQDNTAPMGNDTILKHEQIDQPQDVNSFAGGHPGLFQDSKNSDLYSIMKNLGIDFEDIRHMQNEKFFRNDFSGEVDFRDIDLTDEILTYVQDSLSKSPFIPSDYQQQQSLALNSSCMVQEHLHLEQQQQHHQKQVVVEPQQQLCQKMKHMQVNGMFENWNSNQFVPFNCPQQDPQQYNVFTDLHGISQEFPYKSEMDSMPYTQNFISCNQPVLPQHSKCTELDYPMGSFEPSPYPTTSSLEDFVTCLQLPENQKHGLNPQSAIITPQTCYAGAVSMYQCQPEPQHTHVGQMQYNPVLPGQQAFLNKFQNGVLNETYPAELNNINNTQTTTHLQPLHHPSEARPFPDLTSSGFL

EC50 (Mucolipin-3): > 29.9 µM (not active)
EC50 (Ion channel NompC): > 29.9 µM (not active)
EC50 [1]: > 260 µM (inactive)
IC50 [2]: > 80 µM (inactive)
IC50 [3]: 47.3 µM (inactive)
SMILES: O=C(O)c1csc(N/N=C/c2ccc(Br)cc2)n1

IC50 [4]: 6.09 µM (active)
SMILES: O=C(NCc1ccccc1)C(C1CC1)n1c(=O)c(-c2ccco2)nc2ccccc21 (centres undefined)

IC50 [5]: > 50 µM (not active)
SMILES: CC(C)(C)c1cc(=O)n(-c2ccccc2)[nH]1
IC50 [6]: 19.1 µM (active)
IC50 [7]: 7.95 µM (active)

IC50 [9]: > 20 µM (inactive)
SMILES: C/C(CC(=O)Nc1ccc(N(C)C)cc1)=N\NC(=O)c1ccccn1
AC50 [8]: 78 µM (active)

IC50 [10]: 17.8 µM (inactive)
SMILES: Cc1cc([N+](=O)[O-])c(C)cc1-c1ccc(/C=N/NC(=O)Cn2nnnc2N)o1

SMILES: O=c1oc2cc(O)ccc2c2oc3cc(O)ccc3c12 [COUMESTROL]
GI50 (P388/ADR): 26.2 µM (inactive)
GI50 (SN12K1): 50 µM (inactive)
GI50 (P388): 27.4 µM (inactive)
IC50 [11]: > 66.6 µM (inactive)
IC50 [12]: 14.7 µM (active)
IC50 [13]: 32.3 µM (active)
AC50 [14]: 50.1 µM (inconclusive)
